pIC50: −log10 of the molar value.
How the values were obtained:
[1] = test system: Neonatal Rat Ventricular Myocytes (NRVMs); assay: Myocyte proliferation assay (EdU assay) in neonatal rat ventricular myocytes; type: cell-based; settings: growth relative to blank myocyte growth without compound added; for Avg 1 uM (average myocyte proliferation): compound 1 uM; for Avg 3 uM (average myocyte proliferation): compound 3 uM; for Avg 10 uM (average myocyte proliferation): compound 10 uM
Procedure, shortened: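 Neonatal rat ventricular myocytes, fibroblast-depleted by preplating, serum-starved 24 h (2% FBS/ITS), then given compound at 10, 3 or 1 uM in 6% FBS medium for 36 h before 12 h EdU labelling. Fixed cells stained for EdU (Click-iT), ab8295 primary antibody and DAPI; quantified by high-content confocal imaging.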

human HIPK1 = biological target: T1, human HIPK1 (Homo sapiens, UniProt Q86Z02); assay: HIPK1 enzyme assay (ADP-Glo); type: biochemical; settings: ADP-Glo, ATP 5 μM; read-out: HIPK1 IC50
T1 construct: Recombinant human HIPK1 (156-555); GST (N); purchased SignalChem H03-11G; host or cells: Sf9 insect cells
Procedure, shortened: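 Recombinant GST-tagged HIPK1 (156-555, Sf9), 4 nM, preincubated 30 min at 25° C with compound in Tris pH 7.5/MgCl2/BSA/DTT, then reacted 90 min with 0.05 mg/ml MBP and 5 μM ATP. ADP formed read by ADP-Glo luminescence; IC50 from four-parameter logistic fit of % inhibition versus Max/Min controls.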

T1 sequence (Q86Z02 156-555): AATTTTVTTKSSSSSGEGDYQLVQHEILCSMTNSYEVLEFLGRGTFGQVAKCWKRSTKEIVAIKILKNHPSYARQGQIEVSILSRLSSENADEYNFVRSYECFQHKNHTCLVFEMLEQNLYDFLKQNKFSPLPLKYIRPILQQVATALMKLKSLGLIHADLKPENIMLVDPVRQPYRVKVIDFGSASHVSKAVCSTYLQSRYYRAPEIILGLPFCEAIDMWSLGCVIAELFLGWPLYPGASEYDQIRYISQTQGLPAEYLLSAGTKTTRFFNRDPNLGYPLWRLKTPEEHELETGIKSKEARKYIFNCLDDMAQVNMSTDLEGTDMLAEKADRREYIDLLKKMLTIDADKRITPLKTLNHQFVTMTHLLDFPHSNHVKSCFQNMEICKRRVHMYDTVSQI

pIC50 (human HIPK1)	Structure (SMILES)	Avg 1 uM (average myocyte proliferation) [1]	Avg 3 uM (average myocyte proliferation) [1]	Avg 10 uM (average myocyte proliferation) [1]
< 5.00	O=C1NC(Nc2ccc3ncsc3c2)=N/C1=C\c1ccc2cccnc2c1 [Example 60, (Z)-2-(benzo[d]thiazol-6-ylamino)-5-(quinolin-7-ylmethylene)-3,5-dihydro-4H-imidazol-4-one]	* (<10% growth relative to blank myocyte growth without compound added.)	* (<10% growth relative to blank myocyte growth without compound added.)	–
< 5.00	CN(C1=N/C(=C\c2ccc3c(c2)OCCO3)C(=O)N1)c1ccc2ncsc2c1 [Example 84, (Z)-2-(benzo[d]thiazol-6-yl(methyl)amino)-5-((2,3-dihydrobenzo[b][1,4]dioxin-6-yl)methylene)-3,5-dihydro-4H-imidazol-4-one]	* (<10% growth relative to blank myocyte growth without compound added.)	** (10%-50%)	–
< 5.00	O=C1NC(N(CC2CC2)c2ccccc2)=N/C1=C\c1ccc2c(c1)OCCO2 [Example 39, (Z)-2-((cyclopropylmethyl)(phenyl)amino)-5-((2,3-dihydrobenzo[b][1,4]dioxin-6-yl)methylene)-3,5-dihydro-4H-imidazol-4-one]	*** (>50%)	** (10%-50%)	* (<10% growth relative to blank myocyte growth without compound added.)
6.00 to 7.00	O=C1NC(Nc2ccc3ncsc3c2)=N/C1=C\c1ccc2ncsc2c1 [Example 48, (Z)-2-(benzo[d]thiazol-6-ylamino)-5-(benzo[d]thiazol-6-ylmethylene)-3,5-dihydro-4H-imidazol-4-one]	*** (>50%)	*** (>50%)	*** (>50%)
5.00 to 6.00	O=C1NC(Nc2ccc(Cl)cc2)=N/C1=C\c1ccc2ncsc2c1 [Example 40, (Z)-5-(benzo[d]thiazol-6-ylmethylene)-2-((4-chlorophenyl)amino)-3,5-dihydro-4H-imidazol-4-one]	*** (>50%)	*** (>50%)	*** (>50%)
< 5.00	Cn1ncc2cc(/C=C3\N=C(Nc4ccc5ncsc5c4)NC3=O)ccc21 [Example 78, (Z)-2-(benzo[d]thiazol-6-ylamino)-5-((1-methyl-1H-indazol-5-yl)methylene)-3,5-dihydro-4H-imidazol-4-one]	* (<10% growth relative to blank myocyte growth without compound added.)	* (<10% growth relative to blank myocyte growth without compound added.)	–
< 5.00	O=C1NC(Nc2ccc3ncsc3c2)=N/C1=C\c1ccc2[nH]ccc2c1 [Example 58, (Z)-5-((1H-indol-5-yl)methylene)-2-(benzo[d]thiazol-6-ylamino)-3,5-dihydro-4H-imidazol-4-one]	* (<10% growth relative to blank myocyte growth without compound added.)	* (<10% growth relative to blank myocyte growth without compound added.)	–
> 7.00	O=C1NC(Nc2ccc3ncsc3c2)=N/C1=C\c1ccc2scnc2c1 [Example 57, (Z)-5-(benzo[d]thiazol-5-ylmethylene)-2-(benzo[d]thiazol-6-ylamino)-3,5-dihydro-4H-imidazol-4-one]	* (<10% growth relative to blank myocyte growth without compound added.)	* (<10% growth relative to blank myocyte growth without compound added.)	–
< 5.00	O=C1NC(Nc2ccc3ncsc3c2)=N/C1=C\c1ccc2cc[nH]c2c1 [Example 63, (Z)-5-((1H-indol-6-yl)methylene)-2-(benzo[d]thiazol-6-ylamino)-3,5-dihydro-4H-imidazol-4-one]	* (<10% growth relative to blank myocyte growth without compound added.)	* (<10% growth relative to blank myocyte growth without compound added.)	–
< 5.00	O=C1NC(Nc2ccc3ncsc3c2)=N/C1=C\c1ccc2c(c1)OCCO2 [Example 74, (Z)-2-(benzo[d]thiazol-6-ylamino)-5-((2,3-dihydrobenzo[b][1,4]dioxin-6-yl)methylene)-3,5-dihydro-4H-imidazol-4-one]	* (<10% growth relative to blank myocyte growth without compound added.)	*** (>50%)	–
< 5.00	CN(C1=N/C(=C\c2ccc3ncsc3c2)C(=O)N1)c1ccc([N+](=O)[O-])cc1 [Example 43, (Z)-5-(benzo[d]thiazol-6-ylmethylene)-2-(methyl(4-nitrophenyl)amino)-3,5-dihydro-4H-imidazol-4-one]	** (10%-50%)	** (10%-50%)	** (10%-50%)
< 5.00	Cn1cnc2cc(/C=C3\N=C(Nc4ccccc4)NC3=O)ccc21 [Example 71, (Z)-5-((1-methyl-1H-benzo[d]imidazol-5-yl)methylene)-2-(phenylamino)-3,5-dihydro-4H-imidazol-4-one]	* (<10% growth relative to blank myocyte growth without compound added.)	* (<10% growth relative to blank myocyte growth without compound added.)	–
< 5.00	O=C1NC(Nc2ccccc2)=N/C1=C\c1ccc2cc[nH]c2c1 [Example 73, (Z)-5-((1H-indol-6-yl)methylene)-2-(phenylamino)-3,5-dihydro-4H-imidazol-4-one]	* (<10% growth relative to blank myocyte growth without compound added.)	* (<10% growth relative to blank myocyte growth without compound added.)	–
< 5.00	O=C1NC(N(Cc2ccccc2)c2ccccc2)=N/C1=C\c1ccc2[nH]cnc2c1 [Example 35, (Z)-5-((1H-benzo[d]imidazol-5-yl)methylene)-2-(benzyl(phenyl)amino)-3,5-dihydro-4H-imidazol-4-one]	* (<10% growth relative to blank myocyte growth without compound added.)	* (<10% growth relative to blank myocyte growth without compound added.)	–

Structure (SMILES)	pIC50 (human HIPK1)	Avg 1 uM (average myocyte proliferation) [1]	Avg 3 uM (average myocyte proliferation) [1]	Avg 10 uM (average myocyte proliferation) [1]
O=C1NC(N(Cc2ccccc2)c2ccccc2)=N/C1=C\c1ccc2ncsc2c1 [Example 41, (Z)-5-(benzo[d]thiazol-6-ylmethylene)-2-(benzyl(phenyl)amino)-3,5-dihydro-4H-imidazol-4-one]	< 5.00	* (<10% growth relative to blank myocyte growth without compound added.)	* (<10% growth relative to blank myocyte growth without compound added.)	** (10%-50%)
O=C1NC(Nc2ccccc2)=N/C1=C\c1ccc(=O)[nH]c1 [Example 9, (Z)-5-((5-oxo-2-(phenylamino)-1,5-dihydro-4H-imidazol-4-ylidene)methyl)pyridin-2(1H)-one]	< 5.00	* (<10% growth relative to blank myocyte growth without compound added.)	** (10%-50%)	** (10%-50%)
O=C1NC(Nc2ccccc2)=N/C1=C\c1ccc2[nH]ncc2c1 [Example 55, (Z)-5-((1H-indazol-5-yl)methylene)-2-(phenylamino)-3,5-dihydro-4H-imidazol-4-one]	< 5.00	* (<10% growth relative to blank myocyte growth without compound added.)	* (<10% growth relative to blank myocyte growth without compound added.)	–
COc1ccc(NC2=N/C(=C\c3ccc4ncsc4c3)C(=O)N2)cc1 [Example 25, (Z)-5-(benzo[d]thiazol-6-ylmethylene)-2-((4-methoxyphenyl)amino)-3,5-dihydro-4H-imidazol-4-one]	6.00 to 7.00	** (10%-50%)	* (<10% growth relative to blank myocyte growth without compound added.)	* (<10% growth relative to blank myocyte growth without compound added.)
CN(CC1CC1)C1=N/C(=C\c2ccc3c(c2)OCO3)C(=O)N1 [Example 11, (Z)-5-(benzo[d][1,3]dioxol-5-ylmethylene)-2-((cyclopropylmethyl)(methyl)amino)-3,5-dihydro-4H-imidazol-4-one]	< 5.00	** (10%-50%)	** (10%-50%)	*** (>50%)
CC(C)NC1=N/C(=C\c2ccc3ncsc3c2)C(=O)N1C [Example 45, (Z)-5-(benzo[d]thiazol-6-ylmethylene)-2-(isopropylamino)-3-methyl-3,5-dihydro-4H-imidazol-4-one]	5.00 to 6.00	** (10%-50%)	** (10%-50%)	** (10%-50%)
CC(C)NC1=N/C(=C\c2ccc3scnc3c2)C(=O)N1 [Example 49, (Z)-5-(benzo[d]thiazol-5-ylmethylene)-2-(isopropylamino)-3,5-dihydro-4H-imidazol-4-one]	< 5.00	* (<10% growth relative to blank myocyte growth without compound added.)	** (10%-50%)	*** (>50%)

From patent US12643887B2, “Heterocyclic derivatives with cardiomyocyte proliferation activity for treatment of heart diseases” (Tongji University, priority 2019, dated 2026)
